In patent US11952364B2, “TRK inhibitors useful as anticancer drugs” (TYLIGAND BIOSCIENCE (SHANGHAI) LIMITED, priority 2018, dated 2024):
Like-named read-outs stand apart in the source and are kept apart here.

Test system: KM12 cells
Experiment: Proliferation of KM12 cells (CellTiter-Glo)
Type: cell-based, human
Settings: Homo sapiens, read-out: KM-12, IC50
Source text: KM12 is a human colon cancer cell line in which NTRK1 is highly expressed, and gene fusion occurs with TPM3 to form TPM3-NTRK1. • [Test method]: Promega's CellTiter-Glo® Luminescent Cell Viability Assay kit was used to evaluate the inhibitory activity of the compounds on the proliferation of KM12 cells. • [Instrument]: Spectramax M3 multifunctional microplate reader from Molecular Devices. • [Test materials]: KM12 cell line (ATCC, item number CRL-12496), 96-well transparent flat-bottomed black-walled cell culture plate (Corning, item number #3603), RPMI-1640 media (GE, cat #SH30027.01), Fetal Bovine Serum FBS (Thermo Fisher, cat #10099-141), CellTiter-Glo® Luminescent Cell Viability Assay Kit (Promega, cat #G7572), PBS (Solarbio, cat #P1020), Trypsin (Thermo Fisher, cat #25200072), DMSO (Sigma, cat #D2650). • [Experimental procedure]: When resuscitating KM12 cells, the freezing tube was quickly shaken in a 37° C. water bath to melt within 1 minute. The thawed cell suspension was mixed uniformly with RPMI1640 medium containing 10% FBS, centrifuged at 1000 rpm for 5 minutes, and the supernatant discarded. 5 mL of complete medium (RPMI1640 medium with 10% FBS) was taken to resuspend the cell pellets, charged into a cell culture flask with a bottom area of 25 cm^2, and incubated in a cell incubator at 37° C., 95% humidity and 5% CO2. Cells were allowed to passage when the cell confluence rate reached about 80%. For cell passage, the old medium was discarded, and the cells were washed twice with PBS, and 0.5 mL trypsin was added to digest the cells. Upon dispersing into single cells and exfoliating from the bottom of the cell culture flask, 4.5 mL of new complete medium was added to terminate the digestion. After pipetting the cell suspension evenly, 1/5 of the cell suspension was kept and added with 4 mL of new complete medium, and after pipetting evenly, the cell flask was placed in the cell incubator for further culturing. Cell plating was performed when the cell confluence rate reached about 80% again. For cell plating, 1/5 of the cell suspension was kept for further culturing as in the cell passage method, and the remaining 4/5 of the cell suspension was placed in a 15 mL centrifuge tube, detected for cell viability by Trypan blue exclusion method to ensure that cell viability was above 90%. A cell suspension with a density of 3.33×10^4 viable cells/mL was prepared with complete medium, and 90 μL of such cell suspension was added to a 96-well cell culture plate to obtain a cell density of 3000 viable cells/mL in the cell culture plate. A control group containing no cells, no compound and only complete medium (i.e. culture medium control) and a control group containing no compound but containing cells (i.e. cell control) were set. The cell plate was placed in a cell incubator overnight.
The 10 mM compound stock solution in DMSO was first serially diluted with DMSO at a dilution factor of 3.16 times, to obtain 9 concentrations, and the 10th concentration was set as DMSO control without compound. Then, PBS was used to dilute the DMSO solutions of compounds of different concentrations, at a dilution factor of 100 times, so that the DMSO concentration in the compound solution of each concentration was 1%. Finally, 10 μL of each of the above solutions was added to the corresponding cell culture plate, so that the initial compound concentration was 10 μM, with the remaining concentrations being successively diluted at a dilution factor of 3.16 times, and the DMSO content in the cell culture plate was 0.1%.
The cell plate was placed in a cell incubator and cultured for 72 hours. For endpoint detection, the CellTiter-Glo reagent was melted, and the cell plate was moved to room temperature to equilibrate for 30 minutes, added with 100 μL of CellTiter-Glo for each well, and shaken on an orbital shaker for 5 minutes to fully lyse the cells. […]

Compound | IC50 (KM12, Table 1-2, separate test) | IC50 (KM12, 72 h, Table 1, 72 hours)
CCOc1ccc(C(=O)Nc2ccc(Oc3cc4cnn(C)c4cc3-c3cn[nH]c3)c(F)c2)c(=O)n1-c1ccc(F)cc1 [Example 14, N-(3-fluoro-4-(1-methyl-6-(1H-pyrazol-4-yl)-1H-indazol-5-yloxy)phenyl)-1-(4-fluorophenyl)-6-ethoxy-2-oxo-12-dihydropyridine-3-carboxamide] | 24 nM | 
O=C(Nc1cnn2ccc(N3CCC[C@@H]3c3cc(F)ccc3F)nc12)N1CC[C@H](O)C1 [LOXO-101, Larotrectinib, reference compound] |  | 8.3 nM
